In patent US6773705B1, “Methods for diagnosing and treating autoimmune disease” (General Hospital Corporation, priority 1998, dated 2004):
Square brackets hold non-standard residues; d marks the D form. Peptide text beside a SMILES is read from it. * marks the point of attachment. Nva = CCC[C@H](N)C(=O)O; Cbz = O=C(OCc1ccccc1)*

Experiments:
[1] = target: T1, NFκBp65-associated protein kinase (cytosolic); experiment: In vitro kinase assay, GST-CTD phosphorylation by GST-NFκBp65-precipitated complexes from Molt-4 cytosolic extract; assay type: biochemical, human; details: GST-CTD substrate, FIG. 1C
T1 construct: other: cytosolic; GST-C
Protocol: (§2) GST-NFκp65 and GST-CTD were expressed in BL21 pLysS E. Coli cells and purified by selective absorption to glutathione sepharose beads. GST-NFκBp65 was incubated with Molt-4 cytosolic and nuclear extracts, prepared as described above. Reaction mixtures were washed in PBS. The precipitated complexes were then incubated with GST-CTD of RNA polymerase II large subunit in kinase buffer containing γ-[^32P]ATP as previously described (Hayashi et al., 1993, J. Biol. Chem., 268: 26790-26795; Faustman et al., 1989, Diabetes, 38: 1462-1468). One-fortieth of the input (I) and supernatant (S) fractions and 1/40 of the last wash (W) and pellet (P) fractions were used for in vitro kinase reaction. Protein complexes were collected by brief centrifugation, washed and then incubated with GST-CTD substrates in kinase buffer containing y-^32P ATP. The products of the in vitro kinase reactions were then analyzed on SDS-PAGE. […] To determine whether the kinase activity of NFκBp65-associated protein kinase were sensitive to DRB, the ability of DRB to inhibit the kinase activity of NFκBp65 association protein kinase was tested by examining the phosphorylation of CTD in the presence of different concentrations of DRB. […] Quantitation of the gel shown in FIG. 1C with an image analyzer (a BAS 3000 phosphorimager) was plotted on a graph. […]

[2] = target: NFκBp65-associated protein kinase (nuclear); assay type: biochemical, human; details: GST-CTD substrate, FIG. 1C
Protocol: as §2

20S proteasome [3] = experiment: In vitro p105/p60Tth processing assay with mouse spleen cytosolic extracts; assay type: biochemical; details: MG115 50 μM, FIG. 12A, 12B right
Protocol: To investigate whether the altered abundance of p50 in NOD mouse spleen cells could be attributable to defective processing of p105 by the proteasome, the processing of p105 by cytosolic extracts of NOD mouse spleen cells was examined using recombinant p105 or the truncated version p60Tth as substrates. The in vitro p105 processing assay reaction was performed as previously described (Fan and Maniatis, 1991, supra). In brief, p105 and p60Tth expression constructs were subjected to in vitro transcription and translation in a wheat germ extract system (Promega) in the presence of [^35S]methionine. The ^35S-labeled p105 and p60th proteins were immunoprecipitated with polyclonal antibodies to p50 and purified for use as substrates. Each substrate protein was incubated for 90 minutes at 30° C. with spleen cytosolic extract (20 or40 μg of protein) in a final volume of 25 μl in the absence or presence of 10 mM ATP (Palombella et al., 1994, supra). The proteasome inhibitor MG115 was also added to the reaction mixture where indicated (FIG. 12). The processed proteins were separated by SDS-polyacrylamide gel electrophoresis (PAGE) on a 10% gel and visualized by autoradiography. […] When p60Tth was incubated with cytosolic extracts of BALB/c cells in the presence of […], mature p50 was generated (FIG. 12A, center). […]

proteasome = experiment: In vitro p105 processing assay with cytoplasmic extracts of T1, T2, Molt-4 and Jurkat cells; assay type: biochemical; details: 50 μg MG115; cell line cytoplasmic extracts; FIG. 12G
Protocol: The labeled p105 was incubated with the cytosolic extracts of these cell lines (20 or 40 μg of protein at left and center) and the reaction mixtures were incubated with (center; FIGS. 12E, F and G) or without (upper; FIGS. 12E, F and G) 10 mM ATP in a wheat germ extract system (Promega) as above. Incubations were also performed in the absence (−) or presence (+) of 50 μg MG115 (lower; FIGS. 12E, F and G). Lane 1 in all gels presented in FIGS. 12E, F and G corresponds to reaction mixtures without substrate. Incubations were performed at 30° C. for 90 minutes, after which the reaction mixtures were analyzed by SDS-PAGE and autoradiography. […] When p105 was incubated with the cytoplasmic extracts of T1 cells, Molt-4 cells and Jurkat cells in the presence of 10 mM ATP, the mature p50 was detected (FIG. 12F); however, the p50 was not generated by incubation of p105 with the cytoplasmic extracts prepared from T2 cells in the presence of 10 mM ATP (FIG. 12F, lanes 4 and 5). To verify that the maturation processing of p50 in the in vitro reaction was mediated by the proteasome processing pathway, the effect of MG115 on proteasome function was examined.

20S proteasome [4] = details: MG115 50 μM; Palombella et al., 1994; cited from earlier work
NF-κB [5] = experiment: EMSA of nuclear NF-κB DNA-binding activity in TNF-α-treated cell lines; assay type: cell-based; details: TNF-α 10 ng/ml, 4 h, FIG. 11A
Protocol: Furthermore, in the […] cell line, in which Lmp2 and Lmp7 genes have been deleted, NF-κB is not activated in response to TNF-α. The effect of TNF-α treatment on the DNA-binding activity of nuclear NF-κB was examined (FIG. 11). EMSA was performed such that cell extracts from mutant T2 cells compared to those of control T1 cells, Molt-4 cells and Jurkat cells after stimulation for 4 h in the absence (−) or presence (+) of 10 ng/ml TNF-α.
-unlabeled oligonucleotide (κB1). Double-stranded oligodeoxynucleotides were synthesized on a DNA synthesizer by the phosphoramidite method and purified on an OPC cartridge. […] The DNA-protein complexes were resolved by electrophoresis on nondenaturing 8% polyacrylamide gels with 0.5×TBE (Tris-borate-EDTA) buffer at 4° C. For competition experiments, nuclear extracts was incubated for […] at 4° C. with a 100-fold molar excess of unlabeled κB oligonucleotide before addition of the radioactive probe. Cytosolic extracts were treated with 1.2% NP-40 and 0.8% deoxycholate to dissociate IκB from NF-κB before incubation with 3^2P-labeled probe. For supershift assays, nuclear extracts were incubated with specific antibodies in 1 hour at 4° C. before addition of DNA probes. Lanes 1 correspondes to negative controls in which nuclear extract was not added.

IκBα = experiment: Immunoblot of cytosolic IκBα in TNF-α-treated spleen lymphocytes; assay type: cell-based, mouse; details: TNF-α 10 ng/ml, FIG. 10B
Protocol: The basal expression of NF-κB subunits, IκBa and cyclin-dependent kinases was examined by immunoblot analysis of cytosolic and nuclear extracts of male (M) or female (F) BALB/c and NOD mouse spleen cells (FIG. 10). In these experiments, extracts of spleen cells were subjected to SDS-PAGE on a 12.5% gel under non-reducing conditions. The separated proteins were transferred electrophoretically to a polyvinylidene difluoride (PVDF) membrane which was then incubated for 2 hours at room temperature with TBS-T (20 mM Tris-HCl, pH 7.6; 137 mM NaCl; 0.05% volume/volume Tween 20) containing 8% (weight/volume) bovine serum albumin. The membrane was then incubated for 12 h at 4° C. with TBS-T containing the appropriate polyclonal antibodies, washed 4×5 minutes with TBS-T at room temperature, incubated for 2 hours at room temperature with TBS-T containing alkaline phosphatase-conjugated secondary antibodies, washed five times with TBS-T and subjected to the alkaline phosphatase color reaction. […]
To assess the dynamics of IκBα protein expression occurring during lymphocyte activation by TNF-α treatment, subcellular fractions from lymphocytes derived from BALB/c and NOD spleen were treated with 10 ng/ml TNF-α. […] IκBα protein was readily detected in the cytosolic extracts from both unstimulated lymphocytes, BALB/c and NOD. […]

spleen cells = experiment: TNF-α cytotoxicity of spleen cells (viable cell count, DNA fragmentation); assay type: cell-based, mouse
Protocol: One critical function of NFκB is to provide protection to cells from the effects of exogenous TNF-α. […] Spleen cells were cultured for 24 hours after exposure to various concentrations (2, 5, 10 or 20 ng/ml) of TNF-α, as indicated on the X axis of the figure. Viable cells remaining after TNF-α treatment are shown as a percentage of viable control (untreated) cells. Standard deviations were calculated from four independent readings within a single experiment. The survival over time of cells treated with TNF-α is charted in FIG. 13B. Spleen cells were treated with TNF-α (10 ng/ml), and viable cells were counted at various times following treatment as indicated on the X axis of the figure.
(§1) DNA fragmentation was evaluated and detected by agarose gel electrophoresis after spleen cells were cultured in 10 ng/ml TNF-α for 24 hours. […] Embryonic fibroblasts prepared from BALB/c and NOD mice were cultured DMEM containing 10% fetal bovine serum and then incubated with various concentrations of TNF-α for 24 hours (FIG. 13D, top) or with TNF-α at 10 ng/ml for the indicated times (FIG. 13D, bottom). Cell viability was assessed by trypan blue exclusion. Data are means±SD of four replicates from a representative experiment, and are expressed as a percentage of the survival value for the corresponding cells not exposed to TNF-α.

[6] = tested on: mouse embryonic fibroblasts (MEF); experiment: TNF-α cytotoxicity of embryonic fibroblasts (trypan blue exclusion); assay type: cell-based; details: NOD MEF; various TNF-α concentrations 24 hours or 10 ng/ml over time; FIG. 13D
Protocol: as §1

NF-κB [7] = experiment: EMSA of NF-κB DNA-binding activity in nuclear extracts of TNF-α-treated spleen cells; details: NOD mouse spleen cells (male and female); TNF-α 10 ng/ml, 4 hours; FIG. 8A
Protocol: In order to assess the influence of TNF-α on NFκB in an in vitro system, a DNA/protein binding assay was undertaken. Nuclear extracts were prepared from BALB/C and NOD mice by methods described above. The binding activities were examined by EMSA with ^32P end-labeled oligonucleotide containing an NFκB recognition sequence. Spleen cells were stimulated with TNF-α treatment (10 ng/ml;+) or without TNF-α treatment (−) and nuclear extracts from the treated cells were prepared 4 hours later. Nuclear extract prepared from spleen cells of BALB/C (lanes 2-5; FIG. 8A) and NOD (lanes 6-9; FIG. 8A) mice and Molt-4 cells (lanes 10 and 11; FIG. 8A) were incubated with DNA probe as follows:
Double-stranded κB wt, κB mut or IL-R2α κB oligonucleotides were end-labeled using [α-^32P]dCTP and Klenow polymerase. Binding reactions of the DNA probe with nuclear extracts were performed at 37° C. for minutes in a total volume of 10 μl of buffer containing 10 mM Hepes (H 7.9), 50 mM KCl, 5 mM Tris-HCl (pH 7.0), 1 mM DTT, 15 mM EDTA, 10% (v/v) glycerol, 1.0 μg of poly (dI.dC), and 4 ng of the labeled probe. The DNA-protein complexes were resolved on nondenaturing 8% polyacrylamide gels. Electrophoresis was performed with 0.5×TBE buffer (4.5 mM Tris-HCl, 4.5 mM boric acid, 0.1 mM EDTA) at 4° C. A negative binding control, to which no nuclear extract was added, was run in lane 1. […]

## OC[C@H]1O[C@@H](n2cnc3cc(Cl)c(Cl)cc32)[C@H](O)[C@@H]1O [DRB, 5,6-dichloro-1-β-D-ribofuranosylbenzimidazole]
[1]
  concentration required for 50% inhibition of the activity of NFκBp65-associated protein kinase: 10 µM
[2]
  concentration required for 50% inhibition of the activity of NFκBp65-associated protein kinase: 1 µM

## CCC[C@@H](C=O)NC(=O)[C@H](CC(C)C)NC(=O)[C@H](CC(C)C)NC(=O)OCc1ccccc1 [MG115] (Cbz-Leu-Leu-[Nva]-aldehyde)
20S proteasome [3]
  processing of p105 and p60Tth: completely inhibited
proteasome
  p105 processing to p50: clearly resulted in defective p105 processing
20S proteasome [4]
  processing of p105: prevent the processing of p105

## TNF-α
NF-κB [5]; T1, Molt-4 and Jurkat cells
  expression of the active nuclear form of NF-κB on EMSA: markedly detected
NF-κB [5]; T2 cells (Lmp2, Lmp7 deleted)
  NF-κB activity: not induced
IκBα; BALB/c lymphocytes
  time to disappearance of cytosolic IκBα: ≤ 40 min
IκBα; NOD lymphocytes
  cytosolic IκBα during TNF-α treatment: clearly detected after 40 minutes of stimulation and then stably expressed
Spleen cells; NOD but not BALB/c spleen cells, TNF-α 10 ng/ml, 24 hours, FIG. 13C
  DNA fragmentation by agarose gel electrophoresis: resulted in apoptosis
Spleen cells; NOD spleen cells, TNF-α 2-20 ng/ml, 24 hours, or 10 ng/ml over time, FIG. 13A, 13B
  toxicity, cell survival: toxic
[6]
  cellular toxicity: no cellular toxicity
NF-κB [7]
  NF-κB activation: only slightly induced
